Key:
Test in all cases: Test C plant response
Format in all cases: in vivo
Settings in all cases: Postemergence, scale 0 to 100
[1] = tested on: bluegrass (annual bluegrass, Poa annua)
How it was run: (§1)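 Test chemicals were applied in a non-phytotoxic solvent mixture containing a surfactant. After 14 days in a controlled growth environment, injury was rated visually against untreated controls on a 0–100 scale (0 no effect, 100 complete control).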

[2] = tested on: deadnettle (henbit deadnettle, Lamium amplexicaule)
How it was run: as §1

[3] = tested on: Italian ryegrass (Lolium multiflorum)
How it was run: as §1

[4] = tested on: lambsquarters (Chenopodium album)
How it was run: as §1

[5] = tested on: oilseed rape (Brassica napus)
How it was run: as §1

[6] = tested on: blackgrass (Alopecurus myosuroides)
How it was run: as §1

[7] = tested on: pigweed (Amaranthus retroflexus)
How it was run: as §1

[8] = tested on: field violet (Viola arvensis)
How it was run: as §1

kochia (Kochia scoparia) = tested on: kochia (Kochia scoparia)
How it was run: as §1

[9] = tested on: windgrass (Apera spica-venti)
How it was run: as §1

[10] = tested on: canarygrass (Phalaris minor)
How it was run: as §1

Cc1ccc(-n2c(-c3ccccc3)ncc(C(=O)C3=C(O)CCCC3=O)c2=O)cc1 [Compound 8]
Plant response rating: Bluegrass ([1]; 31 g ai/ha): 25 | Plant response rating: Bluegrass ([1]; 16 g ai/ha): 5 | Plant response rating: Bluegrass ([1]; 62 g ai/ha): 50 | Plant response rating: Bluegrass ([1]; 125 g ai/ha): 75 | Plant response rating: Deadnettle ([2]; 31 g ai/ha): 95 | Plant response rating: Deadnettle ([2]; 16 g ai/ha): 85 | Plant response rating: Deadnettle ([2]; 62 g ai/ha): 98 | Plant response rating: Deadnettle ([2]; 125 g ai/ha): 100 | Plant response rating: Ryegrass, Italian ([3]; 31 g ai/ha): 0 | Plant response rating: Ryegrass, Italian ([3]; 16 g ai/ha): 0 | Plant response rating: Ryegrass, Italian ([3]; 62 g ai/ha): 20 | Plant response rating: Ryegrass, Italian ([3]; 125 g ai/ha): 35 | Plant response rating: Lambsquarters ([4]; 31 g ai/ha): 98 | Plant response rating: Lambsquarters ([4]; 16 g ai/ha): 98 | Plant response rating: Lambsquarters ([4]; 62 g ai/ha): 98 | Plant response rating: Lambsquarters ([4]; 125 g ai/ha): 100 | Plant response rating: Oilseed Rape ([5]; 31 g ai/ha): 90 | Plant response rating: Oilseed Rape ([5]; 16 g ai/ha): 80 | Plant response rating: Oilseed Rape ([5]; 62 g ai/ha): 98 | Plant response rating: Oilseed Rape ([5]; 125 g ai/ha): 100 | Plant response rating: Blackgrass ([6]; 31 g ai/ha): 30 | Plant response rating: Blackgrass ([6]; 16 g ai/ha): 20 | Plant response rating: Blackgrass ([6]; 62 g ai/ha): 35 | Plant response rating: Blackgrass ([6]; 125 g ai/ha): 35 | Plant response rating: Pigweed ([7]; 31 g ai/ha): 95 | Plant response rating: Pigweed ([7]; 16 g ai/ha): 95 | Plant response rating: Pigweed ([7]; 62 g ai/ha): 98 | Plant response rating: Pigweed ([7]; 125 g ai/ha): 98 | Plant response rating: Field Violet ([8]; 31 g ai/ha): 65 | Plant response rating: Field Violet ([8]; 16 g ai/ha): 10 | Plant response rating: Field Violet ([8]; 62 g ai/ha): 65 | Plant response rating: Field Violet ([8]; 125 g ai/ha): 65 | Plant response rating: Kochia (kochia (Kochia scoparia); 31 g ai/ha): 70 | Plant response rating: Kochia (kochia (Kochia scoparia); 16 g ai/ha): 65 | Plant response rating: Kochia (kochia (Kochia scoparia); 62 g ai/ha): 85 | Plant response rating: Kochia (kochia (Kochia scoparia); 125 g ai/ha): 90 | Plant response rating: Windgrass ([9]; 31 g ai/ha): 10 | Plant response rating: Windgrass ([9]; 16 g ai/ha): 0 | Plant response rating: Windgrass ([9]; 62 g ai/ha): 20 | Plant response rating: Windgrass ([9]; 125 g ai/ha): 60 | Plant response rating: Canarygrass ([10]; 31 g ai/ha): 5 | Plant response rating: Canarygrass ([10]; 16 g ai/ha): 0 | Plant response rating: Canarygrass ([10]; 62 g ai/ha): 10 | Plant response rating: Canarygrass ([10]; 125 g ai/ha): 10
